Test results reported in article PMC6181319, “Thermodynamic and computational analyses reveal the functional roles of the galloyl group of tea catechins in molecular recognition” (PLoS ONE, 2018).
Read-outs that look alike come from different tables or passages of the source. Marks after values point to notes of the source that are not given here. One block for each compound: values may come before it.

What was measured:
[1] = target: T1, human serum albumin (HSA) (Homo sapiens, UniProt P02768); test: Isothermal titration calorimetry (ITC) of binding of catechins and analogs to HSA; set-up: purchased Sigma-Aldrich Japan (Tokyo, Japan); conditions: for change of binding affinity with addition of 0.2 M NaCl: 0.2 M NaCl versus no NaCl
Experimental: The binding of the catechins and its analogs to HSA was examined in a VP-ITC instrument (Microcal Northampton, MA). […] The data were analyzed with the Origin software (ver. 7) by means of a single-binding-site model. The thermodynamic parameters were obtained from three replicate titrations, where the dilution heats of the ligands were subtracted.

[2] = target: T1, human serum albumin (HSA); test: Differential scanning calorimetry (DSC), thermal stability of HSA–ligand complexes; conditions: for Tm: DSC, HSA 50 μM, ligand 500 μM, 50 mM sodium phosphate pH 6.8, HSA alone 68.6 ± 0.1; for ΔTm at 500 µM: human, pH 6.8
Experimental: The thermal stabilities of HSA and the HSA–ligand complexes were determined by differential scanning calorimetry in a VP-DSC autosampler instrument (GE Healthcare). The cell was heated from 303 to 363 K at a rate of 1 K min^−1. The concentrations of HSA and the ligands were 50 and 500 μM, respectively, in a buffer composed of 50 mM sodium phosphate (pH 6.8). The data analysis was carried out with the Origin software (ver. 7) using a two-state model.

site I of HSA = target: T2, site I of HSA (Homo sapiens, UniProt P02768); test: ITC competition assay with warfarin (site I marker); type: binding; conditions: HSA 50 μM, catechin 500 μM, warfarin 500 μM titrated, pH 6.8, 1% DMSO
T2 construct: purchased Sigma-Aldrich Japan (Tokyo, Japan)
Experimental: To obtain information about the HSA binding site of catechins, we carried out competition assays using ITC. Warfarin was used as a marker for monitoring site I of HSA. […] Warfarin was titrated into the cell containing either HSA or an HSA-EGCg complex at 180-s intervals with constant stirring at 307 rpm. The total amount of heat obtained for each measurement was taken as the total heat quantity (ΔQ), and we verified whether warfarin and the catechins bound to the same site by comparing the ΔQ from the interaction between HSA and warfarin. The binding inhibition rate was defined by the equation belowcalculated as follows: […]

[3] = S1 Table, ITC binding affinity listed beside Tm, read-out: KD
[4] = Table 1, ITC, 298 K, 50 mM sodium phosphate pH 6.8
[5] = Table 1, ITC, 298 K, 50 mM sodium phosphate pH 6.8, HSA 50 μM, single-binding-site model
[6] = Table 1, ITC, 298 K, 50 mM sodium phosphate pH 6.8, read-out: KD
[7] = human serum albumin (HSA) 50 µM in buffer
[8] = S2 Table, NaCl 0.2 M, read-out: KD
[9] = Table 2, methylated catechin derivatives, ITC, 298 K

T1 sequence (P02768 25-609): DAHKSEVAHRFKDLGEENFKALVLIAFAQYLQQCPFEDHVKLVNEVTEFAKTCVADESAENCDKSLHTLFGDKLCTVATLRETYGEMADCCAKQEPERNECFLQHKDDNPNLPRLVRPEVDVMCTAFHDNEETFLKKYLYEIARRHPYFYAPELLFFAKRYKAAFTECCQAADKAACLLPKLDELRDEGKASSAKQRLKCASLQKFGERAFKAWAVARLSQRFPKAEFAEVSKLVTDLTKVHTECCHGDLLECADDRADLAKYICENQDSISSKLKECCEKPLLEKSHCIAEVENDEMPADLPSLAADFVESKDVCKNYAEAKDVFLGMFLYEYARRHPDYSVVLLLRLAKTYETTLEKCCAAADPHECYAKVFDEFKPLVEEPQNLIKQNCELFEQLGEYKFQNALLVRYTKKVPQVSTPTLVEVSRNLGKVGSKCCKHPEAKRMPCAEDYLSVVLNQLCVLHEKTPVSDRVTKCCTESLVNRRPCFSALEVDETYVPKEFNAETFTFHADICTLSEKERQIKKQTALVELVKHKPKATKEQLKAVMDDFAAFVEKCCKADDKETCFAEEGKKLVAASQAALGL
T2 sequence (P02768 25-609): as above

Structure (SMILES): O=C(O[C@@H]1Cc2c(O)cc(O)cc2O[C@H]1c1ccc(O)c(O)c1)c1cc(O)c(O)c(O)c1 [Cg, (−)-catechin gallate]
thermodynamic profile of binding (enthalpy-driven or entropy-driven) ([1]; ITC, 298 K): entropy-driven
Kd [1, 3]: 3.5 ± 0.5 µM
ΔH/ΔG ([1]; Table 1, ITC, 298 K): 38%
ΔG [1, 4]: -7.4 ± 0.1 kcal/mol
ΔH [1, 4]: -2.8 ± 0.6 kcal/mol
−TΔS [1, 4]: -4.6 ± 0.7 kcal/mol
N (number of binding sites) [1, 5]: 1.0 ± 0.1
Kd [1, 6]: 3.5 ± 0.5 µM
Tm [2]: 71.7 ± 0.1 °C
ΔTm at 500 µM [2, 7]: 3.1 °C

Structure (SMILES): Oc1cc(O)c2c(c1)O[C@H](c1cc(O)c(O)c(O)c1)[C@H](O)C2 [EGC, (−)-epigallocatechin]
binding site compared with warfarin (site I of HSA): identical
change of binding affinity with addition of 0.2 M NaCl ([1]; ITC): increased
thermodynamic profile of binding (enthalpy-driven or entropy-driven) ([1]; ITC, 298 K): entropy-driven
Kd ([1]; KD, S1 Table, ITC binding affinity listed beside Tm): 20 ± 16 µM
Kd ([1]; KD, S2 Table, NaCl 0 M): 19.5 µM
Kd ([1]; KD, S2 Table, NaCl 0.2 M): 6.7 µM
Kd ([1]; KD, Table 1, ITC, 298 K, 50 mM sodium phosphate pH 6.8): 20 ± 16 µM
ΔH/ΔG ([1]; Table 1, ITC, 298 K): 10%
ΔG [1, 4]: -6.3 ± 0.4 kcal/mol
ΔH [1, 4]: -0.6 ± 0.4 kcal/mol
−TΔS [1, 4]: -5.8 ± 0.7 kcal/mol
N (number of binding sites) [1, 5]: 1.0 ± 0.2
Tm [2]: 68.8± 0.2 °C
ΔTm at 500 µM [2]: 0.2 °C

Structure (SMILES): O=C(O[C@@H]1Cc2c(O)cc(O)cc2O[C@@H]1c1cc(O)c(O)c(O)c1)c1cc(O)c(O)c(O)c1 [EGCg, (−)-epigallocatechin gallate]
binding site compared with warfarin (site I of HSA): identical
change of binding affinity with addition of 0.2 M NaCl ([1]; ITC): decreased
thermodynamic profile of binding (enthalpy-driven or entropy-driven) ([1]; ITC, 298 K): enthalpy-driven
Kd [1, 3]: 2.2 ± 0.3 µM
Kd [1, 8]: 27.3 µM
N ([1]; S3 Table, temperature 288 K): 1.1±0.1
ΔG ([1]; S3 Table, temperature 288 K): -7.4 ± 0.1 kcal/mol
ΔH ([1]; S3 Table, temperature 288 K): -3.9 ± 0.5 kcal/mol
−TΔS ([1]; S3 Table, temperature 288 K): -3.5 ± 0.5 kcal/mol
Kd ([1]; S3 Table, temperature 288 K, read-out: KD): 2.3 ± 0.1 µM
N ([1]; S3 Table, temperature 293 K): 1.1±0.1
ΔG ([1]; S3 Table, temperature 293 K): -7.6 ± 0.7 kcal/mol
ΔH ([1]; S3 Table, temperature 293 K): -4.7 ± 0.7 kcal/mol
−TΔS ([1]; S3 Table, temperature 293 K): -2.9 ± 0.8 kcal/mol
Kd ([1]; S3 Table, temperature 293 K, read-out: KD): 2.1 ± 0.7 µM
N ([1]; S3 Table, temperature 298 K): 1.1±0.1
ΔG ([1]; S3 Table, temperature 298 K): -7.8 ± 0.4 kcal/mol
ΔH ([1]; S3 Table, temperature 298 K): -5.7 ± 0.7 kcal/mol
−TΔS ([1]; S3 Table, temperature 298 K): -2.1 ± 0.6 kcal/mol
Kd ([1]; S3 Table, temperature 298 K, read-out: KD): 2 ± 0.4 µM
N ([1]; S3 Table, temperature 303 K): 1.1±0.1
ΔG ([1]; S3 Table, temperature 303 K): -7.9 ± 0.8 kcal/mol
ΔH ([1]; S3 Table, temperature 303 K): -6.1 ± 0.2 kcal/mol
−TΔS ([1]; S3 Table, temperature 303 K): -1.8 ± 0.3 kcal/mol
Kd ([1]; S3 Table, temperature 303 K, read-out: KD): 2.1 ± 0.8 µM
ΔH/ΔG ([1]; Table 1, ITC, 298 K): 61%
ΔG [1, 4]: -7.7 ± 0.1 kcal/mol
ΔH [1, 4]: -4.7 ± 0.6 kcal/mol
−TΔS [1, 4]: -3.0 ± 0.6 kcal/mol
N (number of binding sites) [1, 5]: 1.1 ± 0.1
Kd [1, 6]: 2.2 ± 0.3 µM
ΔG [1, 9]: -7.7 ± 0.1 kcal/mol
−TΔS [1, 9]: -3.0 ± 0.6 kcal/mol
N (number of binding sites) ([1]; Table 2, methylated catechin derivatives, ITC, 298 K, 50 mM sodium phosphate pH 6.8): 1.1 ± 0.1
Kd ([1]; Table 2, methylated catechin derivatives, ITC, 298 K, 50 mM sodium phosphate pH 6.8, read-out: KD): 2.2 ± 0.3 µM
ΔCp (change in heat capacity) ([1]; slope of ΔH versus temperature, 288 to 303 K): −148 cal mol^−1 K^−1
Tm [2]: 71.4 ± 0.3 °C
ΔTm at 500 µM [2, 7]: 2.7 °C

More lines, now with the values ahead:

Kd [1, 3]: 5 ± 8.6 µM
ΔH/ΔG ([1]; Table 1, ITC, 298 K): 4%
ΔG [1, 4]: -7.1 ± 0.6 kcal/mol
ΔH [1, 4]: -0.3 ± 0.1 kcal/mol
−TΔS [1, 4]: -6.8 ± 0.7 kcal/mol
N (number of binding sites) [1, 5]: 1.0 ± 0.2
Kd [1, 6]: 5 ± 8.6 µM
Tm [2]: 68.5 ± 0.1 °C
ΔTm at 500 µM [2, 7]: -0.1 °C
Structure (SMILES): Oc1cc(O)c2c(c1)O[C@@H](c1ccc(O)c(O)c1)[C@H](O)C2 [C, (+)-catechin]

change of binding affinity with addition of 0.2 M NaCl ([1]; ITC): increased
thermodynamic profile of binding (enthalpy-driven or entropy-driven) ([1]; ITC, 298 K): entropy-driven
Kd [1, 3]: 49 ± 18 µM
Kd ([1]; S2 Table, NaCl 0 M, read-out: KD): 48.7 µM
Kd [1, 8]: 0.7 µM
ΔH/ΔG ([1]; Table 1, ITC, 298 K): 13%
ΔG [1, 4]: -5.8 ± 0.2 kcal/mol
ΔH [1, 4]: -0.8 ± 0.2 kcal/mol
−TΔS [1, 4]: -5.1 ± 0.4 kcal/mol
N (number of binding sites) [1, 5]: 1.0 ^b
Kd [1, 6]: 49 ± 18 µM
Tm [2]: 68.7 ± 0.3 °C
ΔTm at 500 µM [2, 7]: 0 °C
Structure (SMILES): Oc1cc(O)c2c(c1)O[C@H](c1ccc(O)c(O)c1)[C@H](O)C2 [EC, (−)-epicatechin]

change of binding affinity with addition of 0.2 M NaCl ([1]; ITC): decreased
thermodynamic profile of binding (enthalpy-driven or entropy-driven) ([1]; ITC, 298 K): enthalpy-driven
Kd [1, 3]: 1.1 ± 0.1 µM
Kd [1, 8]: 3.7 µM
ΔH/ΔG ([1]; Table 1, ITC, 298 K): 63%
ΔG [1, 4]: -8.1 ± 0.1 kcal/mol
ΔH [1, 4]: -5.1 ± 0.5 kcal/mol
−TΔS [1, 4]: -3.1 ± 0.5 kcal/mol
N (number of binding sites) [1, 5]: 1.0 ± 0.1
Kd [1, 6]: 1.1 ± 0.1 µM
Tm [2]: 72.2 ± 0.1 °C
ΔTm at 500 µM [2, 7]: 3.5 °C
Structure (SMILES): O=C(O[C@@H]1Cc2c(O)cc(O)cc2O[C@@H]1c1ccc(O)c(O)c1)c1cc(O)c(O)c(O)c1 [ECg, (−)-epicatechin gallate]
